System: rat brain microsomes
Test: Ca2+ release measurement with fluo-3 in rat brain microsomes
Assay type: biochemical
Conditions: for EC50: extramicrosomal Ca2+ by fluo-3, read-out: ED50 of Ca^2+ release
Method: Ca^2+ release measurements as follows: Rat brain microsomes were prepared on the day of the experiment. Loading of the microsomes with Ca^2+ took approximately 30 minutes at 24° C. and was used at a protein concentration of 0.5 mg/ml. The free Ca^2+ used for Ca^2+ loading was 0.5 to 2 uM and was present in the loading solution as a contaminant. Ca^2+ uptake and release was followed by measuring extramicrosomal Ca^2+ using fluo-3 (Cal-Biochem) (1 uM). Fluorescence intensity of fluo-3 was measured at excitation and emission wavelength of 490 and 535 nm respectively. Fluorimetry was performed on 500 ul aliquots of microsomes using a Perkin Elmer MF-3. Additions were made in volumes of 1-5 ul and all chemicals were added in incubation medium containing 10 uM EGTA. Ca^2+ traces were calibrated by adding Ca^2+ standard solution.
Ca^2+ release measurements were done as outlined in Example 1.

Compound	Ca^2+ release caused by the substance	EC50 [nM]	further results
Nc1ncnc2c1ncn2[C@@H]1O[C@H](COP(=O)(O)OP(=O)(O)OC[C@H]2OC(O)[C@H](O)[C@@H]2O)[C@@H](O)[C@H]1O (stereo partly shown) [ADPR, ADP-ribose]	caused no Ca^2+ release	–	–
N=c1c2ncn3c2ncn1[C@@H]1O[C@H](COP(=O)(O)OP(=O)(O)OC[C@H]2O[C@@H]3[C@H](O)[C@@H]2O)[C@@H](O)[C@H]1O [cADPR, cyclic ADP-ribose]	–	100	–
N=c1c2ncn3c2ncn1[C@@H]1O[C@H](COP(=O)(O)OP(=O)(O)OP(=O)(O)OC[C@H]2O[C@@H]3[C@H](O)[C@@H]2O)[C@@H](O)[C@H]1O [cATPR, cycle ATP-ribose]	–	5	potency relative to cADPR (times more potent) (ratio of ED50 values): approximately 20 times
NC(=O)c1ccc[n+]([C@@H]2O[C@H](COP(=O)([O-])OP(=O)(O)OC[C@H]3O[C@@H](n4cnc5c(N)ncnc54)[C@H](O)[C@@H]3O)[C@@H](O)[C@H]2O)c1 [β-NAD]	caused no Ca^2+ release	–	–
heparin	–	–	effect on Ca^2+ release induced by IP3 (release induced by IP3): blocked Ca^2+ release induced by IP3
ryanodine	–	–	effect on Ca^2+ release induced by cADPR (release induced by cADPR): inhibited release of Ca^2+ by cADPR
